From US9238015B2 (NESTEC S.A., priority 2012, dated 2016)

What was measured:
[1] = test system: THP-1 blue cells; test: THP-1 blue cell viability (Cell Titer-Glo); assay type: cell-based, human; details: THP-1 blue cells (FIG. 6)
Description: 200000 cells/well were seeded in 100 μl of culture medium in 96 well flat bottom transparent plates. […] 20 μl of culture media containing (or not) LPS 055:B5 (Sigma) (100 ng/ml final) was added and the plates were incubated for 16 hours at 37° C. in a 5% CO2/air incubator.
Cell culture supernatants were carefully transferred to 96 well-plates for NF-κB activity measurement which is proportional to the level of secreted alkaline phosphatase. Briefly, 100 μl of supernatants were mixed with 150 μl of QuantiBlue (Invivogen) in a 96 well-plates incubated for 3 h at 37° C. before OD measurements at 620 nm with Sunrise microplate reader (Tecan, Mannedorf, Switzerland). Cell viability was determined using Cell Titer-Glo kit as described above.

[2] = test system: NF-κB; test: NF-κB activity (SEAP and IL-8 production) in HT-29 clone 34 cells; assay type: cell-based, human
Description: Two in-vitro systems were used: human colonic cells (HT-29 clone 34) and human monocytes/macrophages (THP-1 blue cells). The human colonic adenocarcinoma HT-29 clone 34 cell line (passage 42-50) are adherent cells stably transfected with a NF-κB/SEAP reporter plasmid. They were cultured in DMEM high glucose (4.5 g/L) (Invitrogen) containing 1% of stable L-glutamine and supplemented with 10% of heat inactivated (one hour at 56° C.) Foetal Calf Serum (FCS) (Bioconcept, Allschwil, Switzerland), 1% of Penicillin/Streptomycin (Sigma) and 500 μg/ml of Geneticin (PAA, Pasching, Austria) at 37° C. in a 5% CO2/air incubator. Culture medium was renewed every two days until the cell monolayer reached ˜90% confluence. Cells were sub-cultured using 1× Trypsin/EDTA (Sigma). 10000 cells/well were seeded in 200 μl of culture medium in flat bottom white border 96 well plates (Greiner Bio One, Kremsmuenster, Austria). […] Cell culture supernatants were then collected for measurement of NF-κB activity (determination of secreted alkaline phosphatase and IL-8 production) using Phosphalight (Applied Biosystems) and IL-8 singleplex (Meso Scale, Gaithersburg, Md.) kits, respectively.

[3] = test system: Nrf2; test: Nrf2 reporter assay (AREc32 cells, ARE-luciferase); assay type: cell-based; details: 24 h, dose range 0 to 200 μM (FIG. 3)
Description: Activation of Nrf2 was measured using an Nrf2 reporter assay. This assay is based on the AREc32 cell line, from CRX biosciences (Dundee, Scotland), a stably transfected MCF7 (breast adenocarcinoma) cell line that contains a luciferase gene construct under the control of the ARE. Luciferase is an enzyme which digests luciferin and produces […]. Anti-oxidative molecules such as Tert-butylhydroquinone (TBHQ) induce luciferase transcription via the activation of Nrf2 that binds to ARE. Luciferase activity is determined using a luciferase kit form Promega (Madison, Wis.). The luciferase activity is proportional to the activation of Nrf2. […] The luciferase activity and the cell viability (ATP measurements) were determined using the Luciferase and Cell Titer-Glo kits from Promega. For each run the luciferase activities, measured in Relative Light Units (RLU), of all the wells were normalized with the mean of the luciferase activity of the cells only of all the plates. Among all the samples tested the normalization procedure was found not to affect the data and this observation permits the comparison of samples measured in different runs. For each sample the Nrf2 activation was calculated as follows: […] […] The luciferase content per sample allows a semi quantification of the Nrf2 activation by reflecting the amount of the Nrf2 activating molecule. […]

[4] = test system: AREc32 cells; test: AREc32 cell viability (ATP quantification, Cell Titer-Glo); assay type: cell-based; details: 24 h
Description: To determine the Nrf2 activation the samples were tested on AREc32 cells (seeded in 96 well plates) using 10 independent dilutions (1/2, 1/4, 1/6, 1/10, 1/15, 1/20, 1/25, 1/30, 1/40 and 1/50) and incubated for 24 hours at 37° C. in a 5% CO2/air incubator. The luciferase activity and the cell viability (ATP measurements) were determined using the Luciferase and Cell Titer-Glo kits from Promega.
The cell viability was also measured using a cell Titer-Glo kit (ATP quantification).

[5] = test system: HT-29 clone 34 cells; test: HT-29 clone 34 cell viability (ATP, Cell Titer-Glo); assay type: cell-based, human; details: HT-29 clone 34 cells (FIG. 5)
Description: 10000 cells/well were seeded in 200 μl of culture medium in flat bottom white border 96 well plates (Greiner Bio One, Kremsmuenster, Austria). […] 20 μl of experimental medium containing (or not) LPS 055:B5 or rhTNF-α (100 and 10 ng/ml final, respectively) was added and the plates were incubated for 24 hours at 37° C. in a 5% CO2/air incubator.
Cell viability was determined by measuring ATP using Cell Titer-Glo kit (Promega). Briefly, remaining adherent HT-29 clone 34 cells were incubated for 10 min at room temperature under horizontal shaking (250 rpm) with 120 μl of Cell Titer-Glo reagent (pre-diluted twice in 1×PBS) and the luminescence was measured using Polarstar microplate reader (BMG, Offenburg, Germany) for 1000 ms with a gain value set to 3500.

## CC(=O)/C=C/C(=O)O [4-oxo-2-pentenoic acid]
[1]
  doses toxic to cells: higher than 75 μM
[2]; HT-29 clone 34 cells stimulated with LPS (FIG. 5)
  inhibition of NF-κB activity: inhibits NF-κB activity in a dose dependent manner
[2]; HT-29 clone 34 cells, no LPS, doses tested 3 to 400 μM
  NF-κB activity (SEAP or IL-8 detection) in the absence of LPS: no NF-κB activity was observed
[3]
  Nrf2 activation: strongly activate Nrf2 in a dose dependent manner
[4]
  doses at which viability of AREc32 cells was not affected: lower than 70 μM
[5]
  doses showing a decrease in cell viability: > 50 µM
